Measured values from patent US7344704B2, “Use of perfluoroalkyl-containing metal complexes as contrast media in MR-imaging for visualization of intravascular thrombi” (Schering AG, priority 2002, dated 2008).

What was measured:
Assay type in all cases: physicochemical
[1] = Critical micelle formation concentration (CMC) by tensiometry
Protocol: In aqueous systems, these amphiphilic molecules show the properties that are characteristic of standard surfactants (such as, e.g., sodium dodecylsulfate, SDS). They thus reduce the surface tension of water. By tensiometry, the so-called CMC (critical micelle formation concentration in mol/l) can be determined. In this respect, the surface tension is determined based on the concentration of the substance to be measured. The CMC can be calculated from the plot of the surface tension function (c) that is obtained. The critical micelle formation concentration of the compounds according to the invention must be <10^−3 mol/l, preferably <10^−4 mol/l.
(§1) Both the determination of the CMC and the photon correlation spectroscopy are described in H.-D. Dörfler, “Grenzflächen-und Kolloidchemie [Interface and Colloid Chemistry],” Weinheim, New York, Basel, Cambridge, Tokyo, VSH 1994.

[2] = Proton relaxivity R^1 in plasma (Minispec P 20); conditions: in plasma (bovine) at 40° C., field strength 0.47 Tesla
Protocol: As a third criterion, the proton-relaxivity in plasma (R^1) at 40° C. and a field strength of 0.47 tesla are used. The relaxivity, which is indicated in [l/mmol·s], is the quantitative measurement for the shortening of relaxation time T^1 of the protons. For the purpose according to the invention, the relaxivity must be as high as possible and >10 l/mmol·s, preferably >13 l/mmol·s, especially preferably >15 l/mmol·s.
Relaxivity R^1 [l/mmol·s] of the MR-contrast media according to the invention was determined with the Minispec P 20 device of the Bruker Company. The measurements were taken at 40° C. and a field strength of 0.47 tesla. Eight measuring points were recorded by each T1-sequence: 180°-TI-90°, inversion recovery. As a medium, bovine plasma of the Kraeber Company was used. The contrast medium concentrations [mmol/l] in the batches were between 0.30 and 1.16.
The measurements were carried out in plasma at 40° C. and a field strength of 0.47 Tesla.

[3] = Hydrodynamic micelle diameter 2 Rh by photon correlation spectroscopy
Description: The amphiphilic compounds according to the invention are associated in solution and are present as aggregates. The size (2 Rh) of such aggregates (e.g., micelles, rods, wafers, etc.) can be determined with the aid of […] (PCS).
As a second criterion, the hydrodynamic micelle diameter 2 Rh, which must be >1 nm, is therefore used. In particular, those perfluoroalkyl-containing metal complexes according to the invention whose 2 RH≧3 nm, quite especially preferably >4 nm, are suitable.
as §1

Row | CMC (Critical Micelle Formation Concentration) [1] [mol/L] | R^1 (Relaxivity) [2] | 2 Rh (Hydrodynamic Micelle Diameter) [3] [nm] | Compound
1 | 7.6e-05 | 17.7 l: mmol · s | 4.8 | Gadolinium complex of 10-{1-carboxy-2-carbonyl-[piperazin-1-yl-4-(perfluorooctylsulfonyl)]}-ethyl-1,4,7-tris(carboxymethyl)-1,4,7,10-tetraazacyclododecane, Sodium salt [MK 29]
2 | 0.00089 | 19.5 l: mmol · s | 2.2 | gadolinium complex of 1,4,7-tris{1,4,7-tris(N-(carboxylatomethyl)-10-[N-1-methyl-3,6-diaza-2,5,8-trioxooctane-1,8-diyl)]-1,4,7,10-tetraazacyclododecane, Gd complex}-10-[N-2H,2H,4H,4H,5H,5H-3-oxa-perfluorotridecanoyl]-1,4,7,10-tetraazacyclododecane [MK 12]
3 | 8.1e-06 | 27.9 l: mmol · s | 4.7 | COCCOCCOCCOCCOCC(=O)NCCCC[C@H](NC(=O)COCCC(F)(F)C(F)(F)C(F)(F)C(F)(F)C(F)(F)C(F)(F)C(F)(F)C(F)(F)F)C(=O)NCC(O)CN1CCN(CC(=O)[O-])CCN(CC(=O)[O-])CCN(CC(=O)[O-])CC1.[Gd+3] (stereo partly drawn) [MK 28, 6-N-3,6,9,12,15-Pentaoxahexadecanoyl-2-N-2H,2H,4H,4H,5H,5H-3-oxaperfluorotridecanoyl-L-lysine-N-{1,4,7-tris[carboxylatomethyl]-1,4,7,10-tetraazacyclododecane-10-(2-hydroxy-3-yl), gadoliniumcomplex}-amide]
4 | 7e-06 | 27.9 l: mmol · s | 7.9 | O=C([O-])CN1CCN(CC(=O)[O-])CCN(CC(O)CNC(=O)CNC(=O)CNC(=O)CNC(=O)COCCC(F)(F)C(F)(F)C(F)(F)C(F)(F)C(F)(F)C(F)(F)C(F)(F)C(F)(F)F)CCN(CC(=O)[O-])CC1.[Gd+3] (stereo not drawn) [MK 30, 1,4,7-Tris(carboxylatomethyl)-1,4,7,10-tetraazacyclododecane-10-{2-hydroxy-3-N-[triglycidyl-N-(2H,2H,4H,4H,5H,5H-3-oxa-perfluorotridecanoyl)]amino}-propyl, gadolinium complex]
